Experimental data reported in US20130177531A1, “Inhibitors of Serine Proteases” (Vertex Pharmaceuticals Incorporated, priority 2005, published 2013).

Columns and labels:
[1] = Oral bioavailability and isomer interconversion of R and S isomers at C* in rats; parameters: species or system male Sprague Dawley rats; conditions: rat; for bioavailability / half-life: 30 mg/kg
Protocol: Three groups of male Sprague Dawley rats (n=6-7/group) were orally administered a compound of formula I wherein the mixture comprised about 92% R isomer at position C* and about 8% S isomer at position C*; a mixture that was about 7% R isomer at position C* and about 93% S isomer at position C*; or a compound of formula I wherein the mixture was about 54% R isomer at position C* and about 46% S isomer at position C*; at a nominal dose of 30 mg/kg. Serial blood samples were collected up to 24 hours (hr) post dose. Derived plasma samples (100 μL) were acidified by the addition of 5 μL of formic acid to prevent in vitro interconversion. The determination of concentrations of both the R isomer and the S isomer, at position C*, in plasma and in dose solutions was conducted using a chiral liquid chromatography/mass spectrometry (LC/MS/MS, e.g., LC/tandem mass spectroscopy) method. The formulations of the solid dispersions containing either 10% of the R:S mixture, the R isomer, or the S isomer were prepared according to Table 4. […] The sodium lauryl sulfate and PVP were added to the flask containing the drug solution and were then mixed until dissolved. The mixtures were dried under Roto-vap for about 15 min. After a dry powder was obtained, the solid was then scraped from the flask and transferred to a glass container. The solid was dried for 24 hr at 55° C. in a vacuum oven with nitrogen bleed. The dry solid was then milled by mortar and pestle and was stored in a tightly capped vial. […] Male Sprague Dawley rats (Charles River Laboratories, Kingston, R.I.; n=6-7/group) were used in the study. The day before dosing, the rats were cannulated in the carotid artery for collecting blood samples. […] The experiments were performed with a parallel study design as 6 separate single dose studies as described in Table 5. […] The blood samples were collected in tubes containing potassium EDTA and were centrifuged to plasma within 15 min of collection. A diluted solution of formic acid was prepared by diluting 1 mL of formic acid with 9 mL of water. A total of 5 micro liters (μL) of this diluted formic acid was placed into each plasma tube. An aliquot of plasma (100 μL per tube) was placed into appropriately labeled tubes containing the formic acid, and the acidified plasma was stored frozen at −70° C. until analysis. The acidification step was implemented to prevent in vitro interconversion. Referring to Table 6, several bioavailability parameters for compounds undergoing reversible metabolism could be estimated by the following descriptions.

[2] = in vivo; conditions: male, Sprague-Dawley, rat, iv
Protocol: The intravenous pharmacokinetics of compounds of formula I were evaluated in rats and dogs. A group of 3 male Sprague-Dawley rats weighing between 250 to 300 g was administered an intravenous bolus dose of 0.95 mg/kg of an S-diastereomer of formula I, in a vehicle consisting of 15% ethanol, 10% dimethyl isosorbide, 35% PEG400 and 40% D5W (5% dextrose in water). Serial blood samples were collected in heparinized tubes at 0 (pre-dose), 0.083, 0.167, 0.25, 0.5, 1, 1.5, 2, 3, 4, 6, and 8 h, post-dose administration. […] For oral studies in rats and dogs, an S-diastereomer compound of formula I was formulated in polyvinylpyrrolidone (PVP) K30 plus 2% sodium lauryl sulfate and then dosed as an oral gavage. A group of 3 male Sprague-Dawley rats (250 to 300 g, Harlan, Md.) was dosed orally with 40 mg/kg of the compound, and a group of 3 male Beagle dogs (10.9-12.0 kg) was administered an oral dose of 13.2 mg/kg of the compound. In both oral studies, blood samples were taken at pre-dose, 0.25, 0.5, 1, 1.5, 2, 3, 4, 6, 8, 12, and 24 h following dose administration. […] Samples obtained from the rat intravenous study were subjected to a chiral liquid chromatography/mass spectrometry (LC/MS/MS) analysis, while samples of all other studies were analyzed using a non-chiral LC/MS/MS method. […]

Row | SMILES | FR+SR, estimated total bioavailability based on combined exposure to the R and S isomers following a dose of the R isomer ([1]; male, Sprague Dawley, in vivo) | mean (±SD) Tmax for the R isomer ([1]; male, Sprague Dawley, in vivo) | bioavailability ([1]; male, Sprague Dawley, in vivo) [%] | half-life ([1]; male, Sprague Dawley, in vivo) [h] | in vivo isomer conversion at position C* (R to S versus S to R) [1] | half-life [2] [h] | DN AUCINF of the S isomer ([1]; male, Sprague Dawley, in vivo) [ng·h/mL] | mean (±SD) Tmax for the S isomer ([1]; male, Sprague Dawley, in vivo)
1 | CCC[C@@H](NC(=O)[C@@H]1[C@H]2CCC[C@H]2CN1C(=O)[C@@H](NC(=O)[C@@H](NC(=O)c1cnccn1)C1CCCCC1)C(C)(C)C)C(=O)C(=O)NC1CC1 [R isomer at C*, (1S,3aR,6aS)-2-[(2S)-2-[[(2S)-2-cyclohexyl-1-oxo-2-[(pyrazinylcarbonyl)amino]ethyl]amino]-3,3-dimethyl-1-oxobutyl]-N-[(1R)-1-[2-(cyclopropylamino)-1,2-dioxoethyl]butyl]octahydro-cyclopenta[c]pyrrole-1-carboxamide] | about 98% | 2.11 (−1.24) hr | 80.6 | 2.18 | more prominent | 0.75 | – | –
2 | CCC[C@H](NC(=O)[C@@H]1[C@H]2CCC[C@H]2CN1C(=O)[C@@H](NC(=O)[C@@H](NC(=O)c1cnccn1)C1CCCCC1)C(C)(C)C)C(=O)C(=O)NC1CC1 [S isomer at C*, (1S,3aR,6aS)-2-[(2S)-2-[[(2S)-2-cyclohexyl-1-oxo-2-[(pyrazinylcarbonyl)amino]ethyl]amino]-3,3-dimethyl-1-oxobutyl]-N-[(1S)-1-[2-(cyclopropylamino)-1,2-dioxoethyl]butyl]octahydro-cyclopenta[c]pyrrole-1-carboxamide] | – | – | 42.9 | 3.6 | – | 1.73 | 140 | 2.52 (±2.19) hr
